Test results as given in patent publication US4291033A, “Oxoimidazoquinoxalines” (Roussel Uclaf, priority 1979, dated 1981).

System: cutaneous anaphylaxis
Assay: Passive cutaneous anaphylaxis (PCA) in rats
Assay type: in vivo, male rats
Conditions: Rattus norvegicus
Description: Passive cutaneous anaphylaxis (PCA) in rats
Cutaneous anaphylaxis was induced in groups of 7 male rats weighing 180 to 220 grams by intradermal (ID) sensitization with antiserum followed, three days later, by systemic challenge with antigen. Evans blue dye injected with the antigen is used as a marker to assess the severity of the local response. Anti-allergic drugs inhibit this reaction and this method has been described by OVARY (1962) in "Passive Cutaneous Anaphylaxis in Allergology" 258-367 Ed. Brown; Pergamon Press.
Preparation of Antigen (or Sensitization)
(Alum-precipitated ovalbumen)
1. Wash 120 grams of Al(OH)3 gel in 140 ml of saline (use of a macerator facilitates mixing).
2. Centrifuge at 3,000 r.p.m. for about 10 minutes.
3. Resuspend the precipitate with 300 ml of albumen egg powder (1.3 mg/ml) in saline and allow to stand for 30 minutes.
4. Centrifuge at 3,000 r.p.m. for 10 minutes.
5. Weigh the wet precipitate and to each gram weight add 1 ml of saline. Store in frigerator.
(Quantity sufficient for 60 rats for a 3 day sensitization program).
Preparation of Antiserum (i.e. anti-ovalbumen)
1. 1 ml of the alum-precipitated ovalbumen was injected subcutaneously into 180-200 gram rats on days 0,2 and 4.
2. The rats were bled on day 14 either by cardiac puncture or via the dorsal abdominal aorta.
3. Equal quantities of serum from each animal were pooled and thoroughly mixed.
4. 2 ml of aliquots were stored at -20° C. in plastic tubes.
The antiserum for sensitization was diluted so that an ID injection of 0.1 ml into control animals gave an average score of a single spot of between 2.0-3.5 using a 5 point scoring system (0,1,2,3,4)
(A) SENSITIZATION: Rats are anaesthetized with Nembutal (40-60 mg/kg i.p.) and then sensitized by four ID injections (0.1 ml each) on their shaved backs. The animals were then left for a period of three days to develop sensitization.
(B) […]: The sensitized rats were anaesthetised and challenged orally or intravenously via the superficial penile vein with 1 ml of an antigen/Evans blue mixture (1 mg albumen egg powder in 0.5 ml saline plus 0.5 ml of 1% Evans blue). The injections were speeded up by using an automatic 1 ml self filling glass syringe. The "challenged" rats were killed after 30 minutes, (usually pithed) and their skin on the dorsal surface was removed. The degree and area of blueing, proportional to the anaphylactic reaction, was assessed on a five point scoring system.
1. Total scores for sites 1,2,3 and 4=X
2. Mean value of X for each group=X
3. X t=X for test group; X c=X for control group
4. % inhibition=(X c-X t)/X c×100/1

O=C(O)c1cn2c(n1)c(=O)[nH]c1ccccc12 [Example 2, 4,5-dihydro-4-oxoimidazo-[1,2-a]-quinoxaline-2-carboxylic acid]
ED50 (iv): 0.16 mg/kg
ED50 (po): 2 mg/kg

Cn1c(=O)c2nc(C(=O)O)cn2c2ccccc21 [Example 4, 4,5-dihydro-5-methyl-4-oxoimidazo-[1,2-a]-quinoxaline-2-carboxylic acid]
ED50 (iv): 0.031 mg/kg
ED50 (po): 1.28 mg/kg

CCOC(=O)c1cn2c(n1)c(=O)n(CC)c1ccccc12 [Example 5, Ethyl 4,5-dihydro-5-ethyl-4-oxoimidazo-[1,2-a]-quinoxaline-2-carboxylate]
ED50 (po): 0.16 mg/kg

CCn1c(=O)c2nc(C(=O)O)cn2c2ccccc21 [Example 6, 4,5-dihydro-5-ethyl-4-oxoimidazo-[1,2-a]-quinoxaline-2-carboxylic acid]
ED50 (iv): 0.01 mg/kg
ED50 (po): 0.45 mg/kg

CCCn1c(=O)c2nc(C(=O)O)cn2c2ccccc21 [Example 8, 4,5-dihydro-5-propyl-4-oxoimidazo-[1,2-a]-quinoxaline-2-carboxylic acid]
ED50 (iv): 0.01 mg/kg
ED50 (po): 0.24 mg/kg

CCCCn1c(=O)c2nc(C(=O)O)cn2c2ccccc21 [Example 10, 4,5-dihydro-5-butyl-4-oxoimidazo-[1,2-a]-quinoxaline-2-carboxylic acid]
ED50 (iv): 0.023 mg/kg
ED50 (po): 0.59 mg/kg
